The text below walks through data of patent EP3800188A1, “SUBSTITUTED PYRAZOLOPYRIMIDINES AS IRAK4 INHIBITORS” (Bayer AG, priority 2019, dated 2021).

Broadly, the IC50 is the concentration that inhibits the measured activity by half. Read a low IC50 as inhibition by little substance.

This test has as its target T1, human IRAK4 (Homo sapiens, UniProt Q9NWZ3).
T1 construct: GST (N); made in house; host or cells: baculovirus-infected Hi5 (BTI-TN-5B1-4) insect cells
T1 sequence (Q9NWZ3 1-460): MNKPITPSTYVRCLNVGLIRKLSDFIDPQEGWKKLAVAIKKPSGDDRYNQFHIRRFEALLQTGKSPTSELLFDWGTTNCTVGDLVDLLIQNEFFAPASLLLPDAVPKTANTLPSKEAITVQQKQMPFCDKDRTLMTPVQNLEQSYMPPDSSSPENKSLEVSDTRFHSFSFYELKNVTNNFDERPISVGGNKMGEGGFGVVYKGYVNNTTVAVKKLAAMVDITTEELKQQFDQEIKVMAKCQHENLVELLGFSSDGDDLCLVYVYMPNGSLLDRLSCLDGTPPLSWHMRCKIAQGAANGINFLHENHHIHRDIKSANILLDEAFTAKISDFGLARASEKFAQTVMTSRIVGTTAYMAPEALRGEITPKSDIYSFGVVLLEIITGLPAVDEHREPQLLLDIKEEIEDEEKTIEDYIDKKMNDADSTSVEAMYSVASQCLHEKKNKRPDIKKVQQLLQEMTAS
The experiment in a line: Human IRAK4 kinase activity inhibition assay (IRAK4 TR-FRET assay). The class given is biochemical. Particulars: 1 mM ATP, GST-human IRAK4, average or median values. As to the method: The IRAK4-inhibitory activity of the inventive substances was measured in the IRAK4 TR-FRET assay (TR-FRET = Time Resolved Fluorescence Resonance Energy Transfer) described hereinafter.
Recombinant fusion protein from N-terminal GST (glutathione S-transferase) and human IRAK4, expressed in baculovirus-infected insect cells (Hi5, BTI-TN-5B1-4, cell line purchased from Invitrogen, catalogue No. B855-02) and purified via affinity chromatography, was used as enzyme. The substrate used for the kinase reaction was the biotinylated peptide biotin-Ahx-[…] (C-terminus in amide form) which can be purchased, for example, from Biosyntan GmbH (Berlin-Buch). For the assay, 11 different concentrations in the range from 20 µM to 0.073 nM were prepared from a 2 mM DMSO solution of the test substance. 50 nl of the respective 100fold concentrated test compound solutions in DMSO were pipetted into a black low-volume 384-well microtitre plate or a black 1536-well microtiter plate (both Greiner Bio-One, Frickenhausen, Germany), 2 µl of a solution of IRAK4 in assay buffer [50 mM HEPES pH 7.5, 5mM MgCl2, 1.0 mM dithiothreitol, 30 µM activated sodium orthovanadate, 0.1% (w/v) of bovine gamma-globulin (BGG) 0.04% (v/v) nonidet-P40 (Sigma)] were added and the mixture was incubated for 15 min to allow prebinding of the substances to the enzyme prior to the kinase reaction. […] The concentration of the IRAK4 was adjusted to the respective activity of the enzyme and set such that the assay was carried out in the linear range. Typical concentrations were in the order of about 0.2 nM. The reaction was stopped by addition of 5 µl of a solution of TR-FRET detection reagents [0.1 µM streptavidin-XL665 (Cisbio Bioassays; France, catalogue No. 610SAXLG)] and 1.5 nM anti-phosphoserine antibody [Merck Millipore, "STK Antibody", catalogue No. 35-002] and 0.6 nM LANCE EU-W1024-labelled anti-mouse-IgG antibody (Perkin-Elmer, product No. AD0077; alternatively, it is possible to use a terbium cryptate-labelled anti-mouse-IgG antibody from Cisbio Bioassays) in aqueous EDTA solution (100 mM EDTA, 0.4 % [w/v] bovine serum albumin [BSA] in 25 mM HEPES pH 7.5). The resulting mixture was incubated at 22°C for 1 h to allow formation of a complex of the biotinylated phosphorylated substrate and the detection reagents. The amount of the phosphorylated substrate was then evaluated by measuring the resonance energy transfer from europium chelate-labelled anti-mouse-IgG antibody to streptavidin-XL665. To this end, the fluorescence emissions at 620 nm and 665 nm were measured after excitation at 350 nm in a TR-FRET measuring instrument, for example a Rubystar (BMG Labtechnologies, Offenburg, Germany) or a Viewlux (Perkin-Elmer). The ratio of the emissions at 665 nm and 622 nm was taken as a measure of the amount of phosphorylated substrate. The data were normalized (enzyme reaction without test substance = 0% inhibition; all other assay components but no enzyme = 100% inhibition).
A general note: In TR-FRET formats the signal depends on donor and acceptor labels being close together.
The compound `NC1CCN(c2nc(N[C@H]3C[C@H](O)C3)nc3c2cnn3-c2cccc(C(F)(F)F)c2)CC1(F)F` (mixture of isomers) [Example I-104, trans-3-({4-[(4RS)-4-amino-3,3-difluoropiperidin-1-yl]-1-[3-(trifluoromethyl)phenyl]-1H-pyrazolo[3,4-d]pyrimidin-6-yl}amino)cyclobutanol] had an IC50 of 178 nM. Next, `NC1CCN(c2nc(NC3CCS(=O)(=O)CC3)nc3c2cnn3-c2cccc(C(F)(F)F)c2)CC1(F)F` (racemic) [Example I-105, 4-[(4RS)-4-amino-3,3-difluoropiperidin-1-yl]-N-(1,1-dioxidotetrahydro-2H-thiopyran-4-yl)-1-[3-(trifluoromethyl)phenyl]-1H-pyrazolo[3,4-d]pyrimidin-6-amine]: 280 nM; `CC(C)(O)C1CCN(c2nc(N[C@@H]3CNC[C@H]3F)nc3c2cnn3-c2cccc(C(F)(F)F)c2)CC1` (relative stereo) [Example I-65, 2-[1-(6-{[rel-(3R,4R)-4-fluoropyrrolidin-3-yl]amino}-1-[3-(trifluoromethyl)phenyl]-1H-pyrazolo[3,4-d]pyrimidin-4-yl)piperidin-4-yl]propan-2-ol]: 15.6 nM; `O[C@H]1COC[C@H]1Nc1nc(N2CC(N3CCOCC3)C2)c2cnn(-c3cccc(C(F)(F)F)c3)c2n1` (relative stereo) [Example I-70, rel-(3R,4R)-4-({4-[3-(morpholin-4-yl)azetidin-1-yl]-1-[3-(trifluoromethyl)phenyl]-1H-pyrazolo[3,4-d]pyrimidin-6-yl}amino)tetrahydrofuran-3-ol]: 25 nM.

The compound `O[C@@H]1CC[C@@H]1Nc1nc(N2CC(N3CCOCC3)C2)c2cnn(-c3cccc(C(F)(F)F)c3)c2n1` (relative stereo) [Example I-73, rel-(1R,2S)-2-({4-[3-(morpholin-4-yl)azetidin-1-yl]-1-[3-(trifluoromethyl)phenyl]-1H-pyrazolo[3,4-d]pyrimidin-6-yl}amino)cyclobutanol] showed a half-maximal inhibitory concentration (IC50) of 28 nM. Next, `O[C@@H]1CC[C@H]1Nc1nc(N2CC(N3CCOCC3)C2)c2cnn(-c3cccc(C(F)(F)F)c3)c2n1` (relative stereo) [Example I-75, rel-(1R,2R)-2-({4-[3-(morpholin-4-yl)azetidin-1-yl]-1-[3-(trifluoromethyl)phenyl]-1H-pyrazolo[3,4-d]pyrimidin-6-yl}amino)cyclobutanol]: 14 nM; `CS(=O)(=O)[C@H]1C[C@H](Nc2nc(N3C[C@@H](O)[C@H](F)C3)c3cnn(-c4cccc(C(F)F)c4)c3n2)C1` (relative stereo) [II-16-1, rel-(3R,4R)-1-(1-[3-(difluoromethyl)phenyl]-6-{[trans-3-(methylsulfonyl)cyclobutyl]-amino)-1H-pyrazolo[3,4-d]pyrimidin-4-yl)-4-fluoropyrrolidin-3-ol]: 1.36 nM.

`C[C@H]1CN(c2nc(N[C@H]3C[C@H](S(C)(=O)=O)C3)nc3c2cnn3-c2cccc(C(F)F)c2)C[C@@H]1O` (single isomer, unassigned) [II-17-3, (3R*,4S*)-1-(1-[3-(difluoromethyl)phenyl]-6-{[trans-3-(methylsulfonyl)cyclobutyl]amino}-1H-pyrazolo[3,4-d]pyrimidin-4-yl)-4-methylpyrrolidin-3-ol] showed an IC50 of 4.17 nM. This IC50 is about 3.1-fold higher than that of the compound before.

In turn, `CC(C)(O)C1CCN(c2nc(NC3CCS(=O)(=O)C3)nc3c2cnn3-c2cccc(C(F)(F)F)c2)CC1` (single isomer, unassigned; (-)) [Example I-4-3, (-)-2-(1-{6-[(1,1-dioxidotetrahydrothiophen-3-yl)amino]-1-[3-(trifluoromethyl)phenyl]-1H-pyrazolo[3,4-d]pyrimidin-4-yl}piperidin-4-yl)propan-2-ol] came in with an IC50 of 68.5 nM. Compared with the last compound, the IC50 is about 16-fold higher. Next, `O=C1C[C@@H](Nc2nc(N3CC(N4CCOCC4)C3)c3cnn(-c4cccc(C(F)(F)F)c4)c3n2)CN1` [Example I-1-2, (4R)-4-({4-[3-(morpholin-4-yl)azetidin-1-yl]-1-[3-(trifluoromethyl)phenyl]-1H-pyrazolo-[3,4-d]pyrimidin-6-yl}amino)pyrrolidin-2-one]: 84.5 nM; `CC(C)(O)C1CCN(c2nc(N[C@H]3CNC(=O)C3)nc3c2cnn3-c2cccc(C(F)(F)F)c2)CC1` [Example I-2-2, (4R)-4-({4-[4-(2-hydroxypropan-2-yl)piperidin-1-yl]-1-[3-(trifluoromethyl)phenyl]-1H-pyrazolo[3,4-d]pyrimidin-6-yl}amino)pyrrolidin-2-one]: 31.4 nM; `CC(C)(O)C1CCN(c2nc(NC3CNC(=O)C3)nc3c2cnn3-c2cccc(C(F)(F)F)c2)CC1` (stereo not shown) [Example I-2-3, 4-({4-[4-(2-hydroxypropan-2-yl)piperidin-1-yl]-1-[3-(trifluoromethyl)phenyl]-1H-pyrazolo[3,4-d]pyrimidin-6-yl}amino)pyrrolidin-2-one]: 9.69 nM. Then `CCC1(O)CN(c2nc(N[C@H]3CNC(=O)C3)nc3c2cnn3-c2cccc(C(F)(F)F)c2)C1` [Example I-3-2, (4R)-4-({4-(3-ethyl-3-hydroxyazetidin-1-yl)-1-[3-(trifluoromethyl)phenyl]-1H-pyrazolo[3,4-d]pyrimidin-6-yl}amino)pyrrolidin-2-one], with 167 nM. Then `CC(C)(O)C1CCN(c2nc(NC3CCS(=O)(=O)C3)nc3c2cnn3-c2cccc(C(F)(F)F)c2)CC1` (stereo not shown) [Example I-4-1, 2-(1-{6-[(1,1-dioxidotetrahydrothiophen-3-yl)amino]-1-[3-(trifluoromethyl)phenyl]-1H-pyrazolo[3,4-d]pyrimidin-4-yl}piperidin-4-yl)propan-2-ol], with 12.2 nM; and `CC(C)(O)C1CCN(c2nc(NC3CC(=O)NC3(C)C)nc3c2cnn3-c2cccc(C(F)(F)F)c2)CC1` (stereo not shown) [Example I-6, 4-({4-[4-(2-hydroxypropan-2-yl)piperidin-1-yl]-1-[3-(trifluoromethyl)phenyl]-1H-pyrazolo-[3,4-d]pyrimidin-6-yl}amino)-5,5-dimethylpyrrolidin-2-one], with 76.8 nM; and `CC(C)(O)C1CCN(c2nc(N[C@@H]3CCC(=O)NC3)nc3c2cnn3-c2cccc(C(F)(F)F)c2)CC1` [Example I-7-1, (5R)-5-({4-[4-(2-hydroxypropan-2-yl)piperidin-1-yl]-1-[3-(trifluoromethyl)phenyl]-1H-pyrazolo[3,4-d]pyrimidin-6-yl}amino)piperidin-2-one], with 11.4 nM.

Consider `CC(C)(O)C1CCN(c2nc(N[C@H]3CCC(=O)NC3)nc3c2cnn3-c2cccc(C(F)(F)F)c2)CC1` [Example I-7-2, (5S)-5-({4-[4-(2-hydroxypropan-2-yl)piperidin-1-yl]-1-[3-(trifluoromethyl)phenyl]-1H-pyrazolo[3,4-d]pyrimidin-6-yl}amino)piperidin-2-one], for which the IC50 is 33.8 nM. Against the preceding compound, the IC50 is about 3-fold higher. Then `CN1CC(Nc2nc(N3CCC(C(C)(C)O)CC3)c3cnn(-c4cccc(C(F)(F)F)c4)c3n2)CC1=O` (stereo not shown) [Example I-8, 4-({4-[4-(2-hydroxypropan-2-yl)piperidin-1-yl]-1-[3-(trifluoromethyl)phenyl]-1H-pyrazolo[3,4-d]pyrimidin-6-yl}amino)-1-methylpyrrolidin-2-one], with 41.4 nM; and `CN1CC[C@@H](Nc2nc(N3CCC(C(C)(C)O)CC3)c3cnn(-c4cccc(C(F)(F)F)c4)c3n2)C1=O` [Example I-9, (3R)-3-({4-[4-(2-hydroxypropan-2-yl)piperidin-1-yl]-1-[3-(trifluoromethyl)phenyl]-1H-pyrazolo[3,4-d]pyrimidin-6-yl}amino)-1-methylpyrrolidin-2-one], with 59.5 nM.
